# In publication PMC9017349, “Spiropyrimidinetriones: a Class of DNA Gyrase Inhibitors with Activity against Mycobacterium tuberculosis and without Cross-Resistance to Fluoroquinolones” (Antimicrobial Agents and Chemotherapy, 2022):
# Several values for one entry are separate records, joined by “and”; a condition that tells them apart may be missing. Identical values can stand only once. Like-named read-outs stand apart in the source and are kept apart here.
# Legend:
# [1] = tested on: N. gonorrhoeae; settings: cited from earlier work
# [2] = in vitro; settings: mouse, plasma
# [3] = tested on: M. tuberculosis H37Rv; assay: MIC against M. tuberculosis H37Rv in 7H9 medium with various supplements; type: cell-based, Mycobacterium tuberculosis; settings: for MIC: Mycobacterium tuberculosis, H37RV
# [4] = physchem; settings: pH 6.5
# From the text: (§1) Aiming to identify a compound to progress to in vivo efficacy studies, compounds were profiled for physicochemical properties, PK, and safety.
# [5] = tested on: S. aureus; settings: cited from earlier work
# [6] = tested on: M. tuberculosis expressing DsRed in murine RAW 264.7 cells; assay: microbe, parasite or virus in culture; type: cell-based; settings: for IC50: RAW 264.7, 72 h exposure, read-out: IC50, intracellular M. tuberculosis in murine macrophages
# [7] = tested on: S. pneumoniae; settings: cited from earlier work
# [8] = tested on: M. tuberculosis H37Rv; assay: microbe, parasite or virus in culture; type: cell-based; settings: Mycobacterium tuberculosis, 168 h
# [9] = tested on: iniB promoter reporter in M. tuberculosis H37Rv; type: cell-based, Mycobacterium tuberculosis
# [10] = tested on: replicating M. tuberculosis H37Rv; type: cell-based; settings: 1× MIC
# [11] = tested on: M. tuberculosis Erdman; assay: microbe, parasite or virus in culture; type: cell-based; settings: Mycobacterium tuberculosis, read-out: MIC against the Erdman strain with 4% human serum albumin, 7H9 medium-ADC-glycerol plus 4% human serum albumin
# [12] = tested on: H37Rv (RecA); type: cell-based, Mycobacterium tuberculosis
# [13] = for Average Conc. Found in plasma: infected BALB/c mice
# [14] = tested on: recA promoter reporter in M. tuberculosis H37Rv; type: cell-based, Mycobacterium tuberculosis
# [15] = tested on: murine RAW 264.7 cells; type: cell-based; settings: highest concentration tested
# [16] = target: M. tuberculosis DNA gyrase (Mycobacterium tuberculosis, UniProt P9WG45+P9WG47); assay: biochemical; settings: read-out: IC50, DNA gyrase supercoiling
# [17] = in vitro; settings: human, plasma
# From the text: as §1
# [18] = tested on: mouse lymphoma assay (micronucleation aberrations); settings: highest concentration tested; cited from earlier work
# [19] = tested on: M. tuberculosis H37Rv; assay: microbe, parasite or virus in culture; type: cell-based; settings: Mycobacterium tuberculosis, read-out: MIC90, H37Rv
# [20] = in vivo; settings: BALB/c, mouse, 300 mg/kg
# [21] = in vivo; settings: male, mouse
# [22] = tested on: M. tuberculosis Erdman pFCA-LuxAB (Erdman Lux); settings: BALB/c mice, 300 mg/kg p.o. daily, 12 days
# Sequence of M. tuberculosis DNA gyrase (P9WG45 whole entry): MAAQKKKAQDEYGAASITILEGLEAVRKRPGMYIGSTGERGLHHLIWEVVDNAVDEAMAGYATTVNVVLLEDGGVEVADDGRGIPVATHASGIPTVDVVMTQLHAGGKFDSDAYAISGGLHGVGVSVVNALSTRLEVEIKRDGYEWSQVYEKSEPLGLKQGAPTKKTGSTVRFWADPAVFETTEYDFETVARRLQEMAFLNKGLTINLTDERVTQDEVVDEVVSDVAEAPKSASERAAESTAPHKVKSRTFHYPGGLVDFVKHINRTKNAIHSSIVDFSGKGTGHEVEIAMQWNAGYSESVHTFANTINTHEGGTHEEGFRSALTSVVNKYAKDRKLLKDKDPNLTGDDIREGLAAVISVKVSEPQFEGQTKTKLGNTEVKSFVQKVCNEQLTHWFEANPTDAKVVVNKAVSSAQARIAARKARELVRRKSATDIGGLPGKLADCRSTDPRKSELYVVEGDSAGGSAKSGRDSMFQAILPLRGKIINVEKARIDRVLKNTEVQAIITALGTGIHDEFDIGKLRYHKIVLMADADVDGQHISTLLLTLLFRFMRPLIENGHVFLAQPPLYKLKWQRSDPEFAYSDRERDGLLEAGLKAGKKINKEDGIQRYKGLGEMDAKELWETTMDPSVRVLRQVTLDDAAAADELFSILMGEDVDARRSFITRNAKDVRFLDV
# Sequence of M. tuberculosis DNA gyrase (P9WG47 whole entry): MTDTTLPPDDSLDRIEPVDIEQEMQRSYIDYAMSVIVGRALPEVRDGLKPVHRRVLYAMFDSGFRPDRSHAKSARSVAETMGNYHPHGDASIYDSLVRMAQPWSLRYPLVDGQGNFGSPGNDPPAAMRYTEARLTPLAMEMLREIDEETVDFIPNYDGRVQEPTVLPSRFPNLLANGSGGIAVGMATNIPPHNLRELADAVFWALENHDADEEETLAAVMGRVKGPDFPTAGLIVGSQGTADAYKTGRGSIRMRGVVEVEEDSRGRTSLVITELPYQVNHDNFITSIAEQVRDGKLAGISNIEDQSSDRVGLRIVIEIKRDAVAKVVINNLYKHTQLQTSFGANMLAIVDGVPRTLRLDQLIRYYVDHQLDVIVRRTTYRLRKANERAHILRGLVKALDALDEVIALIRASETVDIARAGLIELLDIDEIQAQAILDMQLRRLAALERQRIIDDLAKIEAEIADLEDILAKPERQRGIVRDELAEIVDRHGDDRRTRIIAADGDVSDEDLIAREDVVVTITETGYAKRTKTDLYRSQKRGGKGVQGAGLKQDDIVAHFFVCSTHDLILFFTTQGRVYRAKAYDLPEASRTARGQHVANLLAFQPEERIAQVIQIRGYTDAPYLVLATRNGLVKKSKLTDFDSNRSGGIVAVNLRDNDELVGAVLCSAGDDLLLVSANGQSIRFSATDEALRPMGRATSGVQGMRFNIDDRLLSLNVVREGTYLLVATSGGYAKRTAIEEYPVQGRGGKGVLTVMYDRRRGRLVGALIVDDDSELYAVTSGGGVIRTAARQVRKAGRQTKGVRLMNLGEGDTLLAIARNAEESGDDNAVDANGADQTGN
compound,measurement,setting,value
Cc1nnc(-c2noc3c(F)c4c(cc23)CC2(C(=O)NC(=O)NC2=O)[C@H]2[C@H](C)O[C@H](C)CN42)o1 [Compound 22],MIC against N. gonorrhoeae,[1],2.0 µM
same,fraction unbound,[2],0.068
same,antibacterial activity in culture lower than moxifloxacin,[3],8 fold
same,MIC,"[3]; read-out: MIC, ADC/GLU/TW",1.7 µM
same,MIC,"[3]; read-out: MIC, DPPC/CAS/TX",5.2 µM
same,MIC,"[3]; read-out: MIC, DPPC/Chol/BSA/TX",2.9 µM
same,MIC,"[3]; read-out: MIC, GLU/BSA/TX",3 µM
same,MIC,"[3]; read-out: MIC, GLU/CAS/TX",2.6 µM
same,solubility thermodynamic,[4],140 µM
same,MIC against S. aureus,[5],0.5 µM
same,macrophage IC50 higher than the average in vitro broth MIC,[6],less than 3 fold
same,IC50,"[6]; Mycobacterium tuberculosis, RAW264.7, 72 h",6.3 µM
same,IC50,[6],6 µM
same,MIC against S. pneumoniae,[7],0.25 µM
same,MIC,"[8]; H37Rv, 7 days, Middlebrook 7H9 with OADC and glycerol, read-out: MIC (dose-response)",7.26 µM
same,MBC,"[8]; H37RV, CARA, transfer to charcoal agar, additional 7 days",15.6 µM
same,bioluminescence response in PiniB-LUX assay,[9],"none of the DNA gyrase inhibitors, including 22, elicited a strong bioluminescence response"
same,time to 3-log kill,[10],7 days
same,MIC,[11],16 µM
same,PrecA-LUX MIC,[12],~ 3.9 μM
same,"Found Concentration in plasma, single mice","[13]; infected BALB/c mice A, B, C, 300 mg/kg QD, 1 hr post dose, 300 mg/kg",229000 ng/mL and 117000 ng/mL and 148000 ng/mL
same,Average Conc. Found in plasma,"[13]; 300 mg/kg QD, 1 hr post dose",165000 ng/mL
same,Average Conc. Found in plasma,"[13]; 300 mg/kg QD, 24 hr post dose",6100 ng/mL
same,free drug concentration over the MIC,"[13]; predicted from PK in healthy mice, for over 8 h",about 2 fold
same,concentration of maximal effect in PrecA-LUX assay,[14]; at 7 days,0.4 µM
same,bioluminescence response in PrecA-LUX assay,[14]; over 7 days,strong bioluminescence signal
same,toxicity against the macrophage cell line,[15],> 100 µM
same,IC50,[16],2 µM
same,fraction unbound,[17],0.15
same,genotoxicity in the MLA,[18],no genotoxicity at the highest concentration tested
same,MIC90,[19],1 µM
same,Cmax,[20],165 ± 58 µg/mL
same,AUC(0-inf),"[21]; iv, 2 mg/kg",2.37 µg·h/mL
same,Vd,"[21]; iv, 2 mg/kg",5.1 L/kg
same,clearance,"[21]; iv, 2 mg/kg",14.3 mL/min/kg
same,half-life,"[21]; iv, 2 mg/kg",3.7 h
same,AUC(0-inf),"[21]; po, 20 mg/kg",24.6 µg·h/mL
same,Cmax,"[21]; po, 20 mg/kg",9.5 µg/mL
same,Tmax,"[21]; po, 20 mg/kg",1 h
same,bioavailability,"[21]; po, 20 mg/kg",104%
same,AUC(0-inf),"[21]; po, 100 mg/kg",343 µg·h/mL
same,Cmax,"[21]; po, 100 mg/kg",47 µg/mL
same,Tmax,"[21]; po, 100 mg/kg",2.8 h
same,AUC(0-inf),"[21]; po, 300 mg/kg",1270 µg·h/mL
same,Cmax,"[21]; po, 300 mg/kg",133 µg/mL
same,Tmax,"[21]; po, 300 mg/kg",1 h
same,AUC(0-inf),"[21]; po, 500 mg/kg",1440 µg·h/mL
same,Cmax,"[21]; po, 500 mg/kg",117 µg/mL
same,Tmax,"[21]; po, 500 mg/kg",0.83 h
same,tolerability,[22],generally well tolerated
